Measurements taken from patent publication US20090005419A1, “Organic Compounds” (priority 2005, published 2009).

Target: T1, HuRfl (Homo sapiens, UniProt Q15717)
T1 construct: HuRfl full length HuR protein
Experiment: Competition experiments with ARE RNA binding to HuRfl (anisotropy, 2D-FIDA)
Conditions: dissociation constants from competition experiments with ARE RNA binding to HuRfl; 1:1:1 stoichiometric, competitive inhibition assumed
Protocol: (1) A cellular reporter gene assay with firefly luciferase under control of the IL-2 or TNF-α AU-rich element. This assay is designed to identify cellularly active, non-toxic inhibitors of ARE-mediated mRNA stabilization. The confirmed hits are tested in a control assay with the luciferase CDS under the IL-2 or TNF-α promoter to exclude compounds acting at the transcriptional level. By definition, the identified hit compounds interfere with posttranscriptional stabilization of short-lived ARE mRNAs at some level along the ARE pathway. (2) In vitro screen for HuR-ARE inhibitors using confocal fluctuation spectroscopy. This assay uses 2D-FIDA to monitor binding of HuR12, a shortened variant of HuR to a TMR labeled ARE RNA in solution. Compounds identified in this screen are supposed to interfere with HuR-ARE recognition by binding either to the ARE or to HuR12. (3) CONA with HuR. Combinatorial on-bead libraries are screened for high affinity HuR binders with CONA. After picking of hit beads and cleavage of on-bead binders from the solid support, the compound structures are decoded by PHPLC-MS. Binding of resynthesized hit compounds to HuR is tested in solution. As the primary result, the identified compounds represent high affinity HuR binders. Functionally, these may be inhibitors of any HuR activity including ARE recognition, nucleocytoplasmic shuttling and protection of the mRNA from ARE-dependent degradation.
The RNA fraction bound y is calculated from the anisotropy data based on y=(r−rmin)/((r−rmin)+Q(rmax−r)) with r≡ measured anisotropy, rmin, rmax≡ anisotropy of the free and HuR bound RNA, respectively, Q ≡ quenching. Dissociation constants Kd are determined by nonlinear curve fitting with KMath in Mathematica 5.0.0, assuming a 1:1:1 stoichiometric, competitive inhibition.

T1 sequence (Q15717 whole entry): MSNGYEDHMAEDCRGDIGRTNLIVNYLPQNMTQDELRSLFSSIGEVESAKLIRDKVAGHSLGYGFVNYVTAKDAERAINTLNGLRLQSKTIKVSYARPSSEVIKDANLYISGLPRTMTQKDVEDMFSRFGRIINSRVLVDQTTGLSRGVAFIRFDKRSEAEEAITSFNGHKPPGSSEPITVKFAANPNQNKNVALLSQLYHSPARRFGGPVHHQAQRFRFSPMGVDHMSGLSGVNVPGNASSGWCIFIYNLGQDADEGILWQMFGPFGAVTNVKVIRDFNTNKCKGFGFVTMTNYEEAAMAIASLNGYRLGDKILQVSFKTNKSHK

Kd	Compound
92 ± 22 nM	COc1cccc(CNC(=O)c2ccc(C(=O)NC(Cc3ccc(CN)cc3)C(=O)NCc3ccc(C)cc3)cc2)c1 (stereo not shown) [Example 3, N-[2-(4-Aminomethyl-phenyl)-1-(4-methyl-benzylcarbamoyl)-ethyl]-N′-(3-methoxy-benzyl)-terephthalamide]
103 ± 20 nM	COCCn1c(C(=O)CN2CCC(C(N)=O)CC2)cc(C(=O)NC(CCO)C(=O)NCCCN2CCCC2=O)c1C (stereo not shown) [Example 4, 1-{2-[4-{3-Hydroxy-1-[3-(2-oxo-pyrrolidin-1-yl)-propylcarbamoyl]-propylcarbamoyl}-1-(2-methoxy-ethyl)-5-methyl-1H-pyrrol-2-yl]-2-oxo-ethyl}-piperidine-4-carboxylic acid amide]
104 ± 14 nM	COc1cccc(CCn2c(C(=O)CN3CCCCC3)cc(C(=O)NC(CC(=O)O)C(=O)NCCCN3CCCC3=O)c2C)c1 (stereo not shown) [Example 5, 3-{[1-[2-(3-Methoxy-phenyl)-ethyl]-2-methyl-5-(2-piperidin-1-yl-acetyl)-1H-pyrrole-3-carbonyl]-amino}-N-[3-(2-oxo-pyrrolidin-1-yl)-propyl]-succinamic acid]
143 ± 27 nM	Cc1c(C(=O)NC(Cc2c[nH]c3ccccc23)C(=O)NCCCN2CCCC2=O)cc(C(=O)CN2CCCCC2)n1Cc1ccccc1 (stereo not shown) [Example 6, 1-Benzyl-2-methyl-5-(2-piperidin-1-yl-acetyl)-1H-pyrrole-3-carboxylic acid {2-(1H-indol-3-yl)-1-[3-(2-oxo-pyrrolidin-1-yl)-propylcarbamoyl]-ethyl}-amide]
